Experimental data reported in patent publication US5677305A, “Oxopyridinylquinoxaline derivative” (Shionogi & Co., Ltd., priority 1994, dated 1997).

Columns and labels:
[1] = system: glycine binding site of the NMDA receptors; conditions: in words; cited from earlier work
[2] = biological target: T1, glycine binding site of NMDA receptors (Rattus norvegicus, UniProt P35439); assay: competitive binding to a glycine binding site of NMDA receptors ([3H]glycine); parameters: species or system Slc-Wistar rat; conditions: for IC50: [3H]glycine 100 nM, rat cerebral cortex membrane, 0° C., 10 minutes
T1 construct: the cerebral cortex of an Slc-Wistar rat (250 to 300 g in weight) was homogenized; from tissue; host or cells: cerebral cortex of Slc-Wistar rat, washed and Triton X-100 treated membranes
Experimental: The ability of the compounds of the present invention to bind to a glycine binding site of the NMDA receptors can be measured, for example, using competitive assay in vitro as described below.
(§1) A rat cerebral cortex is homogenized with a buffer solution, and repeatedly centrifuged and resuspended in a buffer to prepare a membrane sample. The membrane sample is mixed with a solution containing [^3 H] glycine and a compound of interest and incubated for a predetermined period of time. Then, the reaction of the mixture is terminated by dilution and filtration using filter paper. Radioactivity on the filter paper is measured by a liquid scintillation counter. Non-specific binding is measured with 1 mM of non-radioactive glycine to work out IC50.
Assay for competitive binding of 6-nitro-7-(4-oxo-4H-pyridin-1-yl)-1,4-dihydroquinoxaline-2,3-dione (Ia) to a glycine binding site of NMDA receptors.
First, the cerebral cortex of an Slc-Wistar rat (250 to 300 g in weight) was homogenized in 5 mM Tris acetic acid buffer in 20-fold volume (containing 1 mM EGTA, 0.1 mM PMSF, and 0.01% Bacitracin, pH 7.4). The cerebral cortex was centrifuged at 50,000×g for 30 minutes and resuspended in a buffer. This process was repeated four times. The final suspension was stored at -80° C. The frozen suspension was thawed at room temperature and incubated with 0.08% Triton X-100 solution at […] for 10 minutes. The resultant suspension was then washed twice and suspended in 50 mM Tris-acetate buffer (pH 7.4) to give a membrane sample. The membrane sample was mixed with 100 nM [^3 H]glycine and solutions in a series of concentrations of Compound Ia obtained in Example 1. The mixtures were incubated at 0° C. for 10 minutes. Each of the mixtures was diluted and filtered using Whatman GF/C filter paper so as to terminate the reaction, and radioactivity of ^3 H remaining on the filter paper was measured by a scintillation counter for liquid. […] IC50 value of Compound Ia was determined using YM900 (a compound of Example 15 described in WO92/07847) as a control in the same way as described above.

AMPA receptors = assay: competitive binding to AMPA receptors ([3H]AMPA); parameters: species or system Slc-Wistar rat; conditions: [3H]AMPA 30 nM, rat cerebral cortex membrane, 100 mM KSCN, 0° C., 30 minutes
Experimental: The binding ability of the compounds of the present invention with respect to the AMPA receptors can be measured, for example, by the following competitive assay.
as §1, with “H] AMPA” for “H] glycine”, “non-radioactive glutamate” for “non-radioactive glycine”
Assay for competitive binding of 6-nitro-7-(4-oxo-4H-pyridin-1-yl)-1,4-dihydroquinoxaline-2,3-dione (Ia) to AMPA receptors.
First, the cerebral cortex of an Slc-Wistar rat (250 to 300 g in weight) was homogenized in 30 mM Tris acetic acid buffer in 10-fold volume (containing 2.5 mM CaCl2, pH 7.1). […] Each of the mixtures was diluted and filtered using Whatman GF/C filter paper so as to terminate the reaction, and radioactivity of ^3 H remaining on the filter paper was measured by a scintillation counter for liquid. […] IC50 value of Compound Ia was determined using YM900 as a control in the same way as described above.

## N#Cc1cc2[nH]c(=O)c(=O)[nH]c2cc1[N+](=O)[O-] [CNQX, 6-cyano-7-nitroquinoxaline-2,3-dione]
[1]
  antagonistic effects on the glycine binding site of the NMDA receptors: exhibit antagonistic effects on the glycine binding site of the NMDA receptors

## O=c1[nH]c2cc([N+](=O)[O-])c([N+](=O)[O-])cc2[nH]c1=O [DNQX, 6,7-dinitroquinoxaline-2,3-dione]
[1]
  antagonistic effects on the glycine binding site of the NMDA receptors: exhibit antagonistic effects on the glycine binding site of the NMDA receptors

## O=c1ccn(-c2cc3[nH]c(=O)c(=O)[nH]c3cc2[N+](=O)[O-])cc1 [Ia, 6-nitro-7-(4-oxo-4H-pyridin-1-yl)-1,4-dihydroquinoxaline-2,3-dione]
[2]; Ia vs YM900, from Table 2
  antagonistic effects as strong as that of YM900 (times): approximately ten
[2]
  IC50: 6.6 µM
AMPA receptors
  IC50: 0.1 µM

## O=c1[nH]c2cc(-n3ccnc3)c([N+](=O)[O-])cc2[nH]c1=O [YM900, 6-imidazolyl-7-nitroquinoxaline-2,3-(1H, 4H)-dione]
[2]
  IC50: 67 µM
AMPA receptors
  IC50: 0.28 µM
